Measurements as given in patent US7790740B2 (priority 2003, dated 2010).
Where two headings read alike, the source gives them in different places.

Assays:
[1] = tested on: HIV-1 fusion; test: gp160 induced cell-cell fusion assay (HeLa P4 / CHO-Tat10); type: cell-based; settings: Human immunodeficiency virus 1, HeLaP4, read-out: IC50 against HIV-1 fusion (gp160 induced cell-cell fusion)
Description: The gp160 induced cell-cell fusion assay uses a HeLa P4 cell line and a CHO-Tat10 cell line.
The HeLa P4 cell line expresses CCR5 and CD4 and has been transfected with HIV-1 LTR-β-Galactosidase. The media for this cell line is Dulbecco modified eagle's medium (D-MEM) (without L-glutamine) containing 10% foetal calf serum (FCS), 2 mM L-glutamine penicillin/streptomycin (Pen/Strep; 100 U/mL penicillin+[…] streptomycin), and 1 μg/ml puromycin.
The CHO cell line is a Tat (transcriptional trans activator)-expressing clone from a CHO JRR17.1 cell line that has been transfected with pTat puro plasmid. […]
Upon cell fusion, Tat present in the CHO cell is able to transactivate the HIV-1 long terminal repeat (LTR) present in the HeLa cell leading to the expression of the β-Galactosidase enzyme. This expression is then measured using a Fluor Ace™ β-Galactosidase reporter assay kit (Bio-Rad cat no. 170-3150). This kit is a quantitative fluorescent assay that determines the level of expression of β-galactosidase using 4-methylumbelliferul-galactopyranoside (MUG) as substrate. β-Galactosidase hydrolyses the fluorogenic substrate resulting in release of the fluorescent molecule 4-methylumbelliferone (4 MU). Fluorescence of 4-methylumbelliferone is then measured on a fluorometer using an excitation wavelength of 360 nm and emission wavelength of 460 nm. […]

[2] = target: CCR5 (Homo sapiens, UniProt P51681); test: assay for CCR5 binding according to Combadiere et al
Sequence of CCR5 (P51681 whole entry): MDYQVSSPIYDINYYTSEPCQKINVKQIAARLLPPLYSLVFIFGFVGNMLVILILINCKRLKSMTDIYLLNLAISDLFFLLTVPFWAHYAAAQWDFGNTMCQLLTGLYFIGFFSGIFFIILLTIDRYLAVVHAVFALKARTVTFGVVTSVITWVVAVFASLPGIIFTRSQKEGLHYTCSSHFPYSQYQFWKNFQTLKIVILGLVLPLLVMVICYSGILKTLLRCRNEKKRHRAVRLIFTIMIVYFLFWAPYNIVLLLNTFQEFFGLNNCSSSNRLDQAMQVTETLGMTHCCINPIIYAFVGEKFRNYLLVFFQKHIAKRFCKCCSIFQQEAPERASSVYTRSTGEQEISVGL
Source text: Biol., 60, 147-52 (1996); and/or by using the intracellular calcium mobilisation assays as described by the same authors. Cell lines expressing the receptor of interest include those naturally expressing the receptor, such as PM-1, or IL-2 stimulated peripheral blood lymphocytes (PBL), or a cell engineered to express a recombinant receptor, such as CHO, 300.19, L1.2 or HEK-293.

Structure (SMILES) | IC50 [1] | IC50 ([2]; ligand MIP-1α, read-out: IC50 CCR5 binding (MIP-1α)) | IC50 ([2]; ligand MIP-1β, read-out: IC50 CCR5 binding (MIP-1β)) | IC50 ([2]; ligand RANTES, read-out: IC50 CCR5 binding (RANTES)) | IC50 ([2]; IC50 CCR5 binding (MIP-1α), ligand MIP-1α) | IC50 ([2]; IC50 CCR5 binding (MIP-1β), ligand MIP-1β) | IC50 ([2]; IC50 CCR5 binding (RANTES), ligand RANTES)
CC(=O)N[C@@H](CCN1[C@@H]2CC[C@H]1C[C@@H](n1c(C)nc3c1CCN(C(C)=O)C3)C2)c1cccc(F)c1 [Example 1, N-{(1S)-3-[3-endo-(5-Acetyl-2-methyl-4,5,6,7-tetrahydro-1H-imidazo[4,5-c]pyridin-1-yl)-8-azabicyclo[3.2.1]oct-8-yl]-1-(3-fluorophenyl)propyl}acetamide] | 0.13 nM | – | – | – | – | – | –
CC(=O)N[C@@H](CCN1[C@@H]2CC[C@H]1C[C@@H](n1c(C)nc3c1CCN(C(=O)C(C)C)C3)C2)c1cccc(F)c1 [Example 4, N-{(1S)-3-[3-endo-(5-Isobutyryl-2-methyl-4,5,6,7-tetrahydro-1H-imidazo[4,5-c]pyridin-1-yl)-8-azabicyclo[3.2.1]oct-8-yl]-1-(3-fluorophenyl)propyl}acetamide] | – | 7.5 nM | 7.3 nM | 6.7 nM | – | – | –
CCC(=O)N1CCc2c(nc(C)n2[C@H]2C[C@H]3CC[C@@H](C2)N3CC[C@H](NC(C)=O)c2cccc(F)c2)C1 [Example 5, N-{(1S)-3-[3-endo-(2-Methyl-5-propionyl-4,5,6,7-tetrahydro-1H-imidazo[4,5-c]pyridin-1-yl)-8-azabicyclo[3.2.1]oct-8-yl]-1-(3-fluorophenyl)propyl}acetamide] | 0.12 nM | – | – | – | 2.7 nM | 2.4 nM | 1.9 nM
